What was measured:
[1] = molecular target: T1, XIAP L-Bir2-Bir3 (GST-XIAP Linker Bir2Bir3RING fusion protein) (Homo sapiens, UniProt P98170); experiment: Caspase de-repression assay using cellular extracts (apoptosome), L-Bir2-Bir3 XIAP; assay type: biochemical; conditions: 293 cell S100 extract; effective concentration to achieve 50% of activation
T1 construct: made in house; host or cells: E. coli DH5-alpha
Experimental: GST-linker BIR2BIR3Ring: XIAP coding sequence from amino acids 93-497 cloned into PGex4T1 via BamH1 and XhoI. Amino acids 93-497 were amplified from full length XIAP in pGex4t3, using the primers: […] and GCTGCATGTGTGTCAGAGG, using standard PCR conditions. The PCR fragment was TA cloned into pCR-2.1 (invitrogen). Linker BIR2BIR3Ring was subcloned into pGex4T1 by BamHI/XhoI digestion. The plasmid was transformed into E. coli DH5α for use in protein expression and purification. […]
100 ug of 293 cell S100 extract and 0.25 uM-2 uM of GST-XIAP fusion protein (XIAP-Bir3RING, XIAP-Linker Bir2Bir3RING, or full-length XIAP) were co-incubated with serial dilutions of compound (40 uM-5 pM). Caspases present in the extracts were activated by adding 1 mM dATP, 0.1 mM ALLN, 133 ug Cytochrome C (final concentrations), and incubating at 37° C. for 25 minutes. All reactions and dilutions used S100 buffer (50 mM Pipes pH 7.0, 50 mM KCl, 0.5 mM EGTA pH 8.0, 2 mM MgCl2 supplemented with 1/1000 dilutions of 2 mg/ml Cytochalisin B, 2 mg/ml Chymotstatin, Leupeptin, Pepstatin, Antipain, 0.1M PMSF, 1M DTT). Final reaction volume was 30 ul. Caspase-3 activity was measured by overlaying 30 ul of a 0.4 mM DEVD-AMC solution. released AMC cleavage was measured in a TECAN spectrophotometer at 360 nm excitation and 444 nm emission, on a kinetic cycle of 1 hour with readings taken every 5 minutes. Caspase activity was calculated as Vo of AMC fluorescence/sec. Caspase de-repression by our compounds was compared to fully activated extract and activated extract repressed by the presence of XIAP fusion protein.

[2] = system: SKOV-3 (ovarian) cancer cells; experiment: Cell viability (MTT) assay, SKOV3 cells; conditions: 72 hours, MTT based assay; compounds added either alone or in presence of 1-3 ng/ml of TRAIL
Experimental: (§1) MDA-MD-231 (breast) and SKOV-3 (ovarian) cancer cells were cultured in RPMI1640 media supplemented with 10% FBS and 100 units/mL of Penicillin and Steptomycin.
(§2) Viability assays were done on a number of cells including MDA-MB-231, SKOV-3, H460, PC3, HCT-116, and SW480 cells. Cells were seeded in 96 well plates at a respective density of 5000 and 2000 cells per well and incubated at 37° C. in presence of 5% CO2 for 24 hours. Selected compounds were diluted into the media at various concentration ranging from 0.01 uM up to 100 uM. Diluted compounds were added onto the MDA-MB-231 cells. For the MDA-MB-231 SKOV3, H460, PC3, HCT-116, and SW480 cells, the compounds were added either alone or in presence of 1-3 ng/ml of TRAIL. After 72 hours cellular viability was evaluated by MTT based assays.

[3] = molecular target: T2, XIAP bir3 domain (GST-XIAP BIR3RING) (Homo sapiens, UniProt P98170); experiment: Fluorescence polarization-based competition assay, XIAP; assay type: binding; conditions: Ki calculated from displacement of fluorescent probe; read-out: Fluorescent polarization (FP) assay Xiap
T2 construct: made in house; host or cells: E. coli DH5-alpha
Experimental: GST-XIAP BIR3RING: XIAP coding sequence amino acids 246-497 cloned into PGEX2T1 via BamH1 and AVA I. The plasmid was transformed into E. coli DH5a for use in protein expression and purification.
(§3) A fluorescent peptide probe, Fmoc-Ala-Val-Pro-Phe-Tyr(t-Bu)-Leu-Pro-[…]-Gly-OH was prepared using standard Fmoc chemistry on 2-chlorotrityl chloride resin (Int. J. Pept. Prot. Res. 38:555-561, 1991). Cleavage from the resin was performed using 20% acetic acid in dichloromehane (DCM), which left the side chain still blocked. The C-terminal protected carboxylic acid was coupled to 4′-(aminomethy)fluorescein (Molecular Probes, A-1351; Eugene, Oreg.) using excess diisopropylcarbodiimide (DIC) in dimethylformamide (DMF) at room temperature and was purified by silica gel chromatography (10% methanol in DCM). The N-terminal Fmoc protecting group was removed using piperidine (20%) in DMF, and purified by silica gel chromatography (20% methanol in DCM, 0.5% HOAc). Finally, the t-butyl side chain protective groups were removed using 95% trifluoroacetic acid containing 2.5% water and 2.5% triisopropyl silane.
(§4) For all assays, the fluorescence and fluorescence-polarization was evaluated using a Tecan Polarion instrument with the excitation filter set at 485 nm and the emission filter set at 535 nm. For each assay, the concentration of the target protein was first establish by titration of the selected protein in order to produce a linear dose-response signal when incubated alone in the presence of the fluorescent probe. Upon establishing these conditions, the compounds potency (IC50) and selectivity, was assessed in the presence of a fix defined amount of target protein and fluorescent probe and a 10 point serial dilution of the selected compounds. For each IC50 curve, the assays were run as followed: 25 ul/well of diluted compound in 50 mM MES buffer pH 6.5 were added into a black 96 well plate then 25 ul/well of bovine serum albumin (BSA) at 0.5 mg/ml in 50 mM MES pH 6.5. Auto-fluorescence for each compound was first assessed by performing a reading of the compound/BSA solution alone. Then 25 ul of the fluorescein probe diluted into 50 mM MES containing 0.05 mg/ml BSA were added and a reading to detect quenching of fluorescein signal done. Finally 25 ul/well of the target or control protein (GST-BIRs) diluted at the appropriate concentration in 50 mM MES containing 0.05 mg/ml BSA were added and the fluorescence polarization evaluated.
(§5) For each assay the relative polarization-fluorescence units were plotted against the final concentrations of compound and the IC50 calculated using the Grad pad prism software and/or Cambridge soft. The ki value were derived from the calculated IC50 value as described above and according to the equation described in Nikolovska-Coleska, Z. (2004) Anal Biochem 332, 261-273.

[4] = system: MDA-MB-231 (breast) cancer cells; experiment: Cell viability (MTT) assay, MDA cells; conditions: Homo sapiens, MTT based assay
Experimental: as §1, §2

[5] = molecular target: T3, cIAP-2 bir3 domain (GST-HIAP1(cIAP-2) BIR3) (Homo sapiens, UniProt Q13489); experiment: Fluorescence polarization-based competition assay, cIAP-2; assay type: binding; conditions: Ki calculated from displacement of fluorescent probe; read-out: Fluorescent polarization (FP) assay cIAP-2
T3 construct: made in house; host or cells: E. coli DH5-alpha
Experimental: GST-HIAP1(cIAP-2) BIR3: HIAP1 coding sequence from amino acids 236-349, cloned into PGex4T3 via BamH1 and XhoI. The plasmid was transformed into E. coli DH5α for use in protein expression and purification.
as §3, §4, §5

[6] = molecular target: T4, cIAP-1 bir3 domain (GST-HIAP2 (cIAP-1) BIR3) (Homo sapiens, UniProt Q13490); experiment: Fluorescence polarization-based competition assay, cIAP-1; assay type: binding; conditions: Ki calculated from displacement of fluorescent probe; read-out: Fluorescent polarization (FP) assay cIAP-1
T4 construct: made in house; host or cells: E. coli DH5-alpha
Experimental: GST-HIAP2 (cIAP-1) BIR3: HIAP2 coding sequence from amino acids 251-363 cloned into PGex4T3 via BamH1 and XhoI. The plasmid was transformed into E. coli DH5α for use in protein expression and purification.
as §3, §4, §5

HCT-116 tumors = experiment: Combination anti-cancer therapy in vivo (HCT-116 tumors, with mitomycin-C); conditions: HCT-116 tumors in female nude mice
Experimental: Female nude mice received […] HCT-116 subdermally on the right flank. On day 26, when tumors were […], animals were assigned to groups using a balanced design based on tumor size. At that time mitomycin-C and Compound 23 treatment was initated. Mitomycin-C was administered ip at 1 mg/kg, Monday through Friday for two weeks. Compound 23 was given iv at 1 or 5 mg/kg five times per week for the duration of the experiment. Tumor measurements were taken twice weekly.

T4 sequence (Q13490 251-363): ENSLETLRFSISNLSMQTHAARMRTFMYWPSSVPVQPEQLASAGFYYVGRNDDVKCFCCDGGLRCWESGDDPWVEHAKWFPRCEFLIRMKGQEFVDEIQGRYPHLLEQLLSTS
T1 sequence (P98170 93-497): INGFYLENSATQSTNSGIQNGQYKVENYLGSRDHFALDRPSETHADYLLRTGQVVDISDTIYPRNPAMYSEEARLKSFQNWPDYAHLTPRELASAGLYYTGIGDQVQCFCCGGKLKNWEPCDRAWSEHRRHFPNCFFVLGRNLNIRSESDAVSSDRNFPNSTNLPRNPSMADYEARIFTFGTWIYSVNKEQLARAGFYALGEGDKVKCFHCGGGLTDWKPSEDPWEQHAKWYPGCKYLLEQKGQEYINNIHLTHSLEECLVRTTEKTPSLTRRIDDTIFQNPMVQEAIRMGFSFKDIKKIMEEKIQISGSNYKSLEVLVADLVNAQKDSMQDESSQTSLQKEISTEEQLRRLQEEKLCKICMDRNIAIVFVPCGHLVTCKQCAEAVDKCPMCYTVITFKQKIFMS
T2 sequence (P98170 246-497): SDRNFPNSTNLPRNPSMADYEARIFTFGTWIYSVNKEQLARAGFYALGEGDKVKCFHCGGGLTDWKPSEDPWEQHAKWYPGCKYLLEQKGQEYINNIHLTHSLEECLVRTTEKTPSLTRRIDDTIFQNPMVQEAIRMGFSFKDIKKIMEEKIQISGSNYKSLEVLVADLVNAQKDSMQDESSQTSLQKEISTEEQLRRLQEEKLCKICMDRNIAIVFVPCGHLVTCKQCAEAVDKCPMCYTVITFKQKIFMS
T3 sequence (Q13489 236-349): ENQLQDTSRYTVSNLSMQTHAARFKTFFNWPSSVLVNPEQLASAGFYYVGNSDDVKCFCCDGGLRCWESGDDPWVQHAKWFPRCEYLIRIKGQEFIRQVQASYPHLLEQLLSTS

SMILES: CN[C@@H](C)C(=O)N[C@H](C(=O)N1CCC[C@H]1CN(CCc1ccccc1)C(=O)C(F)(F)F)[C@@H](C)OCC#CC#CCO[C@H](C)[C@H](NC(=O)[C@H](C)NC)C(=O)N1CCC[C@H]1CN(CCc1ccccc1)C(=O)C(F)(F)F [Compound 1]
- IC50 [1]: ≤ 100 nM
- EC50 [2]: < 100 nM
- Ki [3]: ≤ 100 nM
- EC50 ([4]; MDA-MB-231, 72 h): < 100 nM
- Ki [5]: ≥ 100 nM
- Ki [6]: ≥ 100 nM

SMILES: CN[C@@H](C)C(=O)N[C@H](C(=O)N1CCC[C@H]1CN(CCc1ccccc1)C(=O)[C@H](N)Cc1ccc(OC)cc1)[C@@H](C)OCC#CC#CCO[C@H](C)[C@H](NC(=O)[C@H](C)NC)C(=O)N1CCC[C@H]1CN(CCc1ccccc1)C(=O)[C@H](N)Cc1ccc(OC)cc1 [Compound 2]
- IC50 [1]: ≤ 100 nM
- Ki [3]: ≤ 100 nM
- EC50 ([4]; MDA-MB-231, 72 hours): < 100 nM
- Ki [5]: ≥ 100 nM
- Ki [6]: ≤ 100 nM

SMILES: CN[C@@H](C)C(=O)N[C@H](C(=O)N1CCC[C@H]1CN(CCc1ccccc1)C(=O)c1ccccc1)[C@@H](C)OCC#CC#CCO[C@H](C)[C@H](NC(=O)[C@H](C)NC)C(=O)N1CCC[C@H]1CN(CCc1ccccc1)C(=O)c1ccccc1 [Compound 3]
- IC50 [1]: ≤ 500 nM
- Ki [3]: ≤ 100 nM
- EC50 ([4]; MDA-MB-231, 72 h): < 100 nM
- Ki [5]: ≤ 5 nM
- Ki [6]: ≤ 100 nM

SMILES: CN[C@@H](C)C(=O)N[C@H](C(=O)N1CCC[C@H]1CN(CCc1ccccc1)S(=O)(=O)c1ccccc1)[C@@H](C)OCC#CC#CCO[C@H](C)[C@H](NC(=O)[C@H](C)NC)C(=O)N1CCC[C@H]1CN(CCc1ccccc1)S(=O)(=O)c1ccccc1 [Compound 4]
- IC50 [1]: ≤ 500 nM
- Ki [3]: ≤ 5 nM
- EC50 ([4]; MDA-MB-231, 72 hours): < 100 nM

SMILES: CN[C@@H](C)C(=O)N[C@H](C(=O)N1CCC[C@H]1CN(CCc1ccccc1)S(=O)(=O)Cc1ccccc1)[C@@H](C)OCC#CC#CCO[C@H](C)[C@H](NC(=O)[C@H](C)NC)C(=O)N1CCC[C@H]1CN(CCc1ccccc1)S(=O)(=O)Cc1ccccc1 [Compound 6]
- IC50 [1]: ≤ 500 nM
- Ki [3]: ≤ 5 nM
- EC50 ([4]; MDA-MB-231, 72 hours): < 100 nM

SMILES: CN[C@@H](C)C(=O)N[C@H](C(=O)N1CCC[C@H]1CN(CCc1ccccc1)C(=O)OCc1ccccc1)[C@@H](C)OCC#CC#CCO[C@H](C)[C@H](NC(=O)[C@H](C)NC)C(=O)N1CCC[C@H]1CN(CCc1ccccc1)C(=O)OCc1ccccc1 [Compound 7]
- IC50 [1]: ≤ 500 nM
- Ki [3]: ≤ 100 nM
- EC50 ([4]; MDA-MB-231, 72 hours): < 100 nM

SMILES: CN[C@@H](C)C(=O)N[C@H](C(=O)N1CCC[C@H]1CN(CCc1ccccc1)S(C)(=O)=O)[C@@H](C)OCC#CC#CCO[C@H](C)[C@H](NC(=O)[C@H](C)NC)C(=O)N1CCC[C@H]1CN(CCc1ccccc1)S(C)(=O)=O [Compound 8]
- IC50 [1]: ≤ 500 nM
- Ki [3]: ≤ 5 nM
- EC50 ([4]; MDA-MB-231, 72 h): < 100 nM

SMILES: CN[C@@H](C)C(=O)N[C@@H](COCc1ccc(COC[C@H](NC(=O)[C@H](C)NC)C(=O)N2CCC[C@H]2CN(CCc2ccccc2)C(=O)C(F)(F)F)cc1)C(=O)N1CCC[C@H]1CN(CCc1ccccc1)C(=O)C(F)(F)F [Compound 11]
- IC50 [1]: ≥ 1000 nM
- EC50 ([4]; MDA-MB-231, 72 h): < 100 nM
- Ki [5]: ≥ 100 nM

SMILES: CN[C@@H](C)C(=O)N[C@@H](COCc1ccc(-c2ccc(COC[C@H](NC(=O)[C@H](C)NC)C(=O)N3CCC[C@H]3CN(CCc3ccccc3)C(=O)C(F)(F)F)cc2)cc1)C(=O)N1CCC[C@H]1CN(CCc1ccccc1)C(=O)C(F)(F)F [Compound 12]
- IC50 [1]: ≥ 1000 nM
- Ki [3]: ≥ 100 nM
- EC50 ([4]; MDA-MB-231, 72 hours): < 100 nM
- Ki [5]: ≤ 5 nM
- Ki [6]: ≤ 100 nM

SMILES: CN[C@@H](C)C(=O)N[C@@H](COC(=O)CCCCCC(=O)OC[C@H](NC(=O)[C@H](C)NC)C(=O)N1CCC[C@H]1CN(CCc1ccccc1)C(=O)c1ccccc1)C(=O)N1CCC[C@H]1CN(CCc1ccccc1)C(=O)c1ccccc1 [Compound 13]
- Ki [3]: ≤ 100 nM
- EC50 ([4]; MDA-MB-231, 72 h): < 1000 nM

SMILES: CN[C@@H](C)C(=O)N[C@@H](COC(=O)c1ccc(C(=O)OC[C@H](NC(=O)[C@H](C)NC)C(=O)N2CCC[C@H]2CN(CCc2ccccc2)C(=O)c2ccccc2)cc1)C(=O)N1CCC[C@H]1CN(CCc1ccccc1)C(=O)c1ccccc1 [Compound 14]
- Ki [3]: ≤ 100 nM
- EC50 ([4]; MDA-MB-231, 72 h): < 1000 nM

SMILES: CN[C@@H](C)C(=O)N[C@H](C(=O)N1CCC[C@H]1C(=O)N[C@@H]1CCCc2ccccc21)[C@@H](C)OCC#CC#CCO[C@H](C)[C@H](NC(=O)[C@H](C)NC)C(=O)N1CCC[C@H]1C(=O)N[C@@H]1CCCc2ccccc21 [Compound 23]
- anti-tumor effect at 5 mg/kg compared to the 1 mg/kg dose (HCT-116 tumors; 5 mg/kg iv in combination with mitomycin-C ip 1 mg/kg): superior anti-tumor effects
- anti-tumor effect in combination with mitomycin-C (HCT-116 tumors; iv at 1 or 5 mg/kg five times per week, mitomycin-C ip 1 mg/kg): increasing anti-tumor effect in combination with mitomycin-C with increasing dose
- IC50 [1]: ≤ 500 nM
- EC50 [2]: < 100 nM
- Ki [3]: ≤ 100 nM
- EC50 ([4]; MDA-MB-231, 72 h): < 100 nM
- Ki [5]: ≤ 100 nM
- Ki [6]: ≤ 5 nM
